Data from patent US8735406B2, “8-oxodihydropurine derivative” (Dainippon Sumitomo Pharma Co., Ltd., priority 2009, dated 2014).
Read-outs that look alike come from different tables or passages of the source.

Target: T1, FAAH (Rattus norvegicus, UniProt P97612)
T1 construct: Preparation of Rat Brain Membranes Preparations (FAAH Enzyme Solution); from tissue; host or cells: rat cerebrum (brain membrane preparation)
T1 sequence (P97612 1-579): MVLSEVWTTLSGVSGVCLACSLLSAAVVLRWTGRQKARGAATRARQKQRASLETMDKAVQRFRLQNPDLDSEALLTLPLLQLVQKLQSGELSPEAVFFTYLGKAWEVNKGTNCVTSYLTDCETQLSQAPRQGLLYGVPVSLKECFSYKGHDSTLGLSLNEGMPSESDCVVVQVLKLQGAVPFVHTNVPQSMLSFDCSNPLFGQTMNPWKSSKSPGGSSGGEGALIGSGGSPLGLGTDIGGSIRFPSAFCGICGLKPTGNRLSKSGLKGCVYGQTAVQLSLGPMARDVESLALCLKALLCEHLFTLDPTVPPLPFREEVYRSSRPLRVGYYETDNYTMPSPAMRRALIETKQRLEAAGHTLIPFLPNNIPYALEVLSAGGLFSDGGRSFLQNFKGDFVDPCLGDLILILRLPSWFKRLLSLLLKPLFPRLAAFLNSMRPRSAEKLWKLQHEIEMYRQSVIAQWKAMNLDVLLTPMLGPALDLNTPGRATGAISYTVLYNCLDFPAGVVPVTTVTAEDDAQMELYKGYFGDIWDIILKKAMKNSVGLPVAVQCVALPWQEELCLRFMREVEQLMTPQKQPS
Assay: Determination of FAAH inhibitory activity in rat (rat brain membrane preparations, [3H]-anandamide hydrolysis)
Assay type: biochemical
Details: for IC50: read-out: FAAH Inhibition IC50
Method in brief: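 Compounds tested from 0.1 nM to 1 μM to derive IC50 against FAAH hydrolysis in rat brain membrane preparations (100 μg/mL). A 10-min 37 °C preincubation was followed by 10 min with [3H]-anandamide (2 nM) mixed with 2 μM unlabelled anandamide. Radioactive ethanolamine was extracted into the water/methanol layer and counted.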

[1] = rat brain membrane preparations, 100 nM test substance, read-out: FAAH Inhibition, Inhibition Rate at 100 nM
[2] = rat brain membrane preparations, test substance 0.1 nM to 1 μM
[3] = read-out: FAAH Inhibition, Inhibition Rate at 100 nM
[4] = at 100 nM, rat brain membrane preparations, read-out: FAAH Inhibition Inhibition Rate at 100 nM
[5] = rat brain membrane preparations

| Structure (SMILES) | inhibition at 0.1 µM [1] | IC50 [2] | inhibition at 0.1 µM [3] | inhibition at 0.1 µM [4] | IC50 [5] |
| --- | --- | --- | --- | --- | --- |
| COCc1ncc2c(n1)n(C)c(=O)n2C(=O)N1CC(c2cccc(F)c2)C1 [Example 440, 7-{[3-(3-Fluorophenyl)azetidin-1-yl]carbonyl}-2-(methoxymethyl)-9-methyl-7,9-dihydro-8H-purine-8-one] | 88% | 0.021 µM |  |  |  |
| COc1cccc(-c2ncc3c(n2)n(C)c(=O)n3C(=O)N2CCN(Cc3cccc(F)c3)CC2)c1 [Example 85, 7-{[4-(3-Fluorobenzyl)piperazin-1-yl]carbonyl}-2-(3-methoxyphenyl)-9-methyl-7,9-dihydro-8H-purine-8-one] |  | 0.031 µM | 93% |  |  |
| Cc1cccc(-c2ncc3c(n2)n(C)c(=O)n3C(=O)N2CCCC2)c1 [Example 170, 9-Methyl-2-(3-methylphenyl)-7-(pyrrolidin-1-ylcarbonyl)-7,9-dihydro-8H-purine-8-one] | 98% | 0.007 µM |  |  |  |
| Cc1ccc(C)c(CCc2ncc3c(n2)n(C(=O)N(C)C)c(=O)n3C)c1 [compound 507] | 95% | 0.024 µM |  |  |  |
| CN(C)C(=O)n1c(=O)n(C)c2cnc(CCc3ccc(C(F)(F)F)cc3)nc21 [Example 540, N,N,7-Trimethyl-8-oxo-2-{2-[4-(trifluoromethyl)phenyl]ethyl}-7,8-dihydro-9H-purine-9-carboxamide] | 88% | 0.017 µM |  |  |  |
| CCOc1cccc(-c2ncc3c(n2)n(C(=O)N2CCC2)c(=O)n3C)c1 [compound 346] | 99% | 0.021 µM |  |  |  |
| CCOCc1ncc2c(n1)n(C)c(=O)n2C(=O)N1CC(c2ccc(OCC)cc2)C1 [Example 463, 2-(Ethoxymethyl)-7-{[3-(4-ethoxyphenyl)azetidin-1-yl]carbonyl}-9-methyl-7,9-dihydro-8H-purine-8-one] | 136% | 0.01 µM |  |  |  |
| CN(C)C(=O)n1c(=O)n(C)c2nc(-c3ccccc3)ncc21 [Example 22] | 102% | 0.012 µM |  |  |  |
| Cn1c(=O)n(C(=O)N2CCCC2)c2cnc(/C=C/c3ccc(Cl)cc3)nc21 [Example 8, 2-[(E)-2-(4-Chlorophenyl)ethenyl]-9-methyl-7-(pyrrolidin-1-ylcarbonyl)-7,9-dihydro-8H-purine-8-one] | 87% | 0.057 µM |  |  |  |
| Cc1ccc(CCc2ncc3c(n2)n(C(=O)N2CCC2)c(=O)n3C)cc1 [compound 559] | 97% | 0.01 µM |  |  |  |
| CCN(C)C(=O)n1c(=O)n(C)c2cnc(CCc3cccc(OC(F)(F)F)c3)nc21 [compound 558] | 83% | 0.023 µM |  |  |  |
| CN(C)C(=O)n1c(=O)n(C)c2cnc(CCc3ccc(C4CC4)c(F)c3)nc21 [compound 524] | 80% | 0.094 µM |  |  |  |
| CN(CCc1ccc(Cl)cc1)C(=O)n1c(=O)n(C)c2nc(-c3ccncc3)ncc21 [Example 150, N-[2-(4-Chlorophenyl)ethyl]-N,9-dimethyl-8-oxo-2-(pyridin-4-yl)-8,9-dihydro-7H-purine-7-carboxamide] |  | < 0.001 µM | 106% |  |  |
| Cn1c(=O)n(C(=O)N2CCCC2)c2nc(CCc3ccc(F)cc3)ncc21 [Example 314, 2-[2-(4-Fluorophenyl)ethyl]-7-methyl-9-(pyrrolidin-1-ylcarbonyl)-7,9-dihydro-8H-purine-8-one] | 100% | 0.037 µM |  |  |  |
| CCCOc1cccc(CCc2ncc3c(n2)n(C(=O)N(C)C)c(=O)n3C)c1 [compound 535] | 61% | 0.075 µM |  |  |  |
| COc1ccc(-c2ncc3c(n2)n(C)c(=O)n3C(=O)N2CCCC2)cc1 [compound 174] | 102% | 0.006 µM |  |  |  |
| Cn1c(=O)n(C(=O)N2CCCC2)c2cnc(Cc3ccc(Cl)cc3)nc21 [Example 20, 2-(4-Chlorobenzyl)-9-methyl-7-(pyrrolidin-1-ylcarbonyl)-7,9-dihydro-8H-purine-8-one] | 95% | 0.04 µM |  |  |  |

| Structure (SMILES) | inhibition at 0.1 µM [1] | IC50 [2] | inhibition at 0.1 µM [3] | inhibition at 0.1 µM [4] | IC50 [5] |
| --- | --- | --- | --- | --- | --- |
| CSc1ccc(-c2ncc3c(n2)n(C)c(=O)n3C(=O)N2CCCC2)cc1 [Example 183, 9-Methyl-2-[4-(methylsulfanyl)phenyl]-7-(pyrrolidin-1-ylcarbonyl)-7,9-dihydro-8H-purine-8-one] | 101% | 0.003 µM |  |  |  |
| CCCCn1c(=O)n(C(=O)N2CCCC2)c2cnc(-c3ccccc3)nc21 [Example 306, 9-Butyl-2-phenyl-7-(pyrrolidin-1-ylcarbonyl)-7,9-dihydro-8H-purine-8-one] | 99% | 0.015 µM |  |  |  |
| CN(C)C(=O)n1c(=O)n(C)c2nc(-c3ccncc3)ncc21 [Example 148, N,N,9-Trimethyl-8-oxo-2-(pyridin-4-yl)-8,9-dihydro-7H-purine-7-carboxamide] | 97% | 0.03 µM |  |  |  |
| COCCC1CCN(C(=O)n2c(=O)n(C)c3nc(-c4cccc(OC)c4)ncc32)CC1 [Example 119, 7-{[4-(2-Methoxyethyl)piperidin-1-yl]carbonyl}-2-(3-methoxyphenyl)-9-methyl-7,9-dihydro-8H-purine-8-one] | 100% | 0.007 µM |  |  |  |
| COc1cccc(-c2ncc3c(n2)n(C)c(=O)n3C(=O)N2CCC(COc3ccccc3)CC2)c1 [Example 101, 2-(3-Methoxyphenyl)-9-methyl-7-{[4-(phenoxymethyl)piperidin-1-yl]carbonyl}-7,9-dihydro-8H-purine-8-one] | 102% | 0.007 µM |  |  |  |
| CN(Cc1ccccc1)C(=O)n1c(=O)n(C)c2nc(-c3ccccc3)ncc21 [Example 34, N-Benzyl-N,9-dimethyl-8-oxo-2-phenyl-8,9-dihydro-7H-purine-7-carboxamide] | 101% | 0.023 µM |  |  |  |
| Cc1ccc(Cc2ncc3c(n2)n(C)c(=O)n3C(=O)N2CCCC2)cc1 [compound 259] | 95% | 0.041 µM |  |  |  |
| Cn1c(=O)n(C(=O)N2CCC2)c2nc(CCc3ccc(OCC(F)F)cc3)ncc21 [Example 593, 9-(Azetidin-1-ylcarbonyl)-2-{2-[4-(2,2-difluoroethoxy)phenyl]ethyl}-7-methyl-7,9-dihydro-8H-purine-8-one] | 58% | 0.059 µM |  |  |  |
| COCc1ncc2c(n1)n(C)c(=O)n2C(=O)N1CC[C@@H](Oc2cccc(Cl)c2)C1 [Example 487, 7-{[(3R)-3-(3-Chlorophenoxy)pyrrolidin-1-yl]carbonyl}-2-(methoxymethyl)-9-methyl-7,9-dihydro-8H-purine-8-one] | 99% | 0.015 µM |  |  |  |
| Cn1c(=O)n(C(=O)N2CCCC2)c2nc(CCc3cccc(F)c3)ncc21 [Example 315, 2-[2-(3-Fluorophenyl)ethyl]-7-methyl-9-(pyrrolidin-1-ylcarbonyl)-7,9-dihydro-8H-purine-8-one] | 95% | 0.019 µM |  |  |  |
| COc1cccc(-c2ncc3c(n2)n(C)c(=O)n3C(=O)N(C)Cc2ccc(C(F)(F)F)cc2)c1 [Example 81, 2-(3-Methoxyphenyl)-N,9-dimethyl-8-oxo-N-[4-(trifluoromethyl)benzyl]-8,9-dihydro-7H-purine-7-carboxamide] | 94% | 0.011 µM |  |  |  |
| Cn1c(=O)n(C(=O)N2CCCC2)c2cnc(-c3ccc(OC(F)(F)F)c(F)c3)nc21 [compound 198] | 92% | 0.046 µM |  |  |  |
| COc1cccc(-c2ncc3c(n2)n(C)c(=O)n3C(=O)N2CCC(=Cc3ccc(Cl)cc3)CC2)c1 [Example 102, 7-{[4-(4-Chlorobenzylidene)piperidin-1-yl]carbonyl}-2-(3-methoxyphenyl)-9-methyl-7,9-dihydro-8H-purine-8-one] | 101% | 0.005 µM |  |  |  |
| Cn1c(=O)n(C(=O)N2CCCC2)c2cnc(-c3cccc(F)c3F)nc21 [Example 187, 2-(2,3-Difluorophenyl)-9-methyl-7-(pyrrolidin-1-ylcarbonyl)-7,9-dihydro-8H-purine-8-one] | 100% | 0.007 µM |  |  |  |
| CCCn1c(=O)n(C(=O)N2CC(c3cccc(F)c3)C2)c2cnc(COC)nc21 [Example 660, 7-{[3-(3-Fluorophenyl)azetidin-1-yl]carbonyl}-2-(methoxymethyl)-9-propyl-7,9-dihydro-8H-purine-8-one] |  |  |  | 121% | 0.01 µM |
| Cc1ccc(CCc2ncc3c(n2)n(C(=O)N(C)C)c(=O)n3C)cc1 [Example 494, N,N,7-Trimethyl-2-[2-(4-methylphenyl)ethyl]-8-oxo-7,8-dihydro-9H-purine-9-carboxamide] | 98% | 0.011 µM |  |  |  |
| Cn1c(=O)n(C(=O)N2CCC2)c2nc(CCc3ccc(OCC(F)(F)F)cc3)ncc21 [Example 613, 9-(Azetidin-1-ylcarbonyl)-7-methyl-2-{2-[4-(2,2,2-trifluoroethoxy)phenyl]ethyl}-7,9-dihydro-8H-purine-8-one] |  |  |  | 95% | 0.012 µM |
